Reference: US20240216357A1 (SICHUAN HUIYU PHARMACEUTICAL CO., LTD., priority 2021, published 2024)
Where a name gives a salt, the structure may show the parent alone. Read-outs that look alike come from different tables or passages of the source.

How the values were obtained:
Rat PK test (IV and PO) = conditions: for Cl / F: Male SD rats; for F: PO vs IV; for AUC(0-inf) / Cmax / half-life / Vd: male, SD, rat, plasma; for Vd: intravenous
Caco-2 permeability test = conditions: human, Caco-2
CYP3A4 = CYP3A4 (Homo sapiens (Human), UniProt P08684); assay: CYP 450 enzyme inhibition test (mixed human liver microsomes, LC-MS/MS)
Chain of CYP3A4 (P08684 whole entry): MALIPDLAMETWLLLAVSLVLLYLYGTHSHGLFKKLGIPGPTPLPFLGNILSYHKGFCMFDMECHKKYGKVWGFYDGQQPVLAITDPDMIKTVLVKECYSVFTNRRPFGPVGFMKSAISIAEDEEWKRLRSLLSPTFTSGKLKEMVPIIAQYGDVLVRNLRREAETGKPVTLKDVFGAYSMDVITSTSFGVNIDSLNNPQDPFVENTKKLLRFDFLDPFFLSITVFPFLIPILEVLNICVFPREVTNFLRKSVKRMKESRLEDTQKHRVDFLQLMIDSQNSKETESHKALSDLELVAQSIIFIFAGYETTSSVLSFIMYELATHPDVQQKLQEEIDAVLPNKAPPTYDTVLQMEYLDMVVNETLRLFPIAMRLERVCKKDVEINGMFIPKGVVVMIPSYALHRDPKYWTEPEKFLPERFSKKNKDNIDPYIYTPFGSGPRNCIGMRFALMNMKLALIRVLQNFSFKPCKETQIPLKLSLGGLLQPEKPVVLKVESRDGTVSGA

[1] = target: voltage-gated potassium ion channel hERG (Homo sapiens (Human), UniProt Q12809); assay: hERG inhibition test (manual patch-clamp)
Chain of voltage-gated potassium ion channel hERG (Q12809 whole entry): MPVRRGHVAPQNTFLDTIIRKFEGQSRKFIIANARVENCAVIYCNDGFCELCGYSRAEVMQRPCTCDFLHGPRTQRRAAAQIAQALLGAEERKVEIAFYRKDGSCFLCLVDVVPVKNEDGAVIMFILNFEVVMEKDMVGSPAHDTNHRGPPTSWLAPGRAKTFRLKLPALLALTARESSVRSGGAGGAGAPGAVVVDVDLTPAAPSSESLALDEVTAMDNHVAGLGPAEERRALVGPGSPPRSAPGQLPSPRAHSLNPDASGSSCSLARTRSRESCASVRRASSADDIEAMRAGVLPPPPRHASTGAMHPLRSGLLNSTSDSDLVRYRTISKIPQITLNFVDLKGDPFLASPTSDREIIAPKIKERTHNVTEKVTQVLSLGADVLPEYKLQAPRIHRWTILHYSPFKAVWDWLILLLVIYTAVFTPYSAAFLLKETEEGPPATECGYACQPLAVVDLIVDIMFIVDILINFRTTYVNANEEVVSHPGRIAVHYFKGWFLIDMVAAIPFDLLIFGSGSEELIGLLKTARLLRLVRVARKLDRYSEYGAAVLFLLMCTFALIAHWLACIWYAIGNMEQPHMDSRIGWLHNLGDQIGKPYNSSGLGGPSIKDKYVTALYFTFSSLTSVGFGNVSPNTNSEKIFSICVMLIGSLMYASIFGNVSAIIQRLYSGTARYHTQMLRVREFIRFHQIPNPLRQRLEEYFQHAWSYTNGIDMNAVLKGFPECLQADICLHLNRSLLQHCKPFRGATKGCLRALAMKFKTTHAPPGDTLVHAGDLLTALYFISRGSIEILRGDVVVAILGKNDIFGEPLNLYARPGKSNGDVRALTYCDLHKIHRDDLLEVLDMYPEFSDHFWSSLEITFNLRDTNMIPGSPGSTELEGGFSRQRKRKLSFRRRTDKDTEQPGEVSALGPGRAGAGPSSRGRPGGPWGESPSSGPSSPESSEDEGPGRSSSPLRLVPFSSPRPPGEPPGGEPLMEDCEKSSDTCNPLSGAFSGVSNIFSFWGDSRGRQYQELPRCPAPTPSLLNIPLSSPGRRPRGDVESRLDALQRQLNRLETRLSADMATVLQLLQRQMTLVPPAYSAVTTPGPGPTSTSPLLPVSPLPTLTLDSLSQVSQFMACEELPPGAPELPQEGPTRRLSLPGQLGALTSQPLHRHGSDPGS

NCI-H1417 cells = assay: In vitro cell proliferation detection (CellTiter-Glo, 7 days); type: cell-based; conditions: Homo sapiens
LSD1 = LSD1 (Homo sapiens (Human), UniProt O60341); assay: LSD1 enzyme activity detection (HTRF); type: biochemical; conditions: HTRF, H3K4me1 substrate; read-out: Inhibition of enzymatic activity of LSD1 IC50
[2] = read-out: CYP3A4-T IC50, mixed human liver microsomes, NADPH, CYP3A4-T probe substrate
[3] = 168 h, NCI-H1417 cells, 7 days, CellTiter-Glo, read-out: NCI-H1417 proliferation inhibition IC50
[4] = read-out: hERG IC50, manual patch-clamp
Throughout, for Cmax: test concentration or dose not given here.

Row | Structure (SMILES) | Papp A→B at 120 min (Caco-2 permeability test) [×10⁻⁶ cm/s] | Papp B→A at 120 min (Caco-2 permeability test) [×10⁻⁶ cm/s] | IC50 (CYP3A4; [2]) [nM] | IC50 (NCI-H1417 cells; [3]) [nM] | IC50 [1, 4] [nM] | IC50 (LSD1) [nM] | also measured
1 | COc1ccc(-c2c(-c3ccc(C#N)c(F)c3)nc(N3CCC(N)CC3)n(C)c2=O)cc1F [(CC90011), reference compound] | 7.26 | 41 | > 50000 |  |  |  | Cl (Rat PK test (IV and PO)): 94.5 mL/min/kg; F (Rat PK test (IV and PO)): 14.3%; AUC(0-inf) (Rat PK test (IV and PO)): 132 ng·h/mL; Cmax (Rat PK test (IV and PO)): 26 ng/mL; half-life (Rat PK test (IV and PO)): 2.32 h; Vd (Rat PK test (IV and PO)): 19.1 L/kg
2 | CS(=O)(=O)N1CCN(C(=O)c2cc(CCN[C@@H]3C[C@H]3c3ccc(F)cc3)nc(-c3ccc(-n4cccn4)cc3)n2)CC1 [Example 12, (2-(4-(1H-pyrazol-1-yl)phenyl)-6-(2-(((1R,2S)-2-(4-fluorophenyl)cyclopropyl)amino)ethyl)pyrimidin-4-yl) (4-(methylsulfonyl)piperazin-1-yl)methanone] | 5.95 | 6.92 |  |  |  |  | efflux ratio at 120 min (Caco-2 permeability test): 1.16; IC50 [1]: 4690 nM; IC50 (CYP3A4): 5590 nM
3 | COc1ccc(-c2c(O)cc(N3CCC(N)CC3)nc2-c2ccc(C#N)c(F)c2)cc1O [Example 23, 4-(6-(4-aminopiperidin-1-yl)-4-hydroxy-3-(3-hydroxy-4-methoxyphenyl)pyridin-2-yl)-2-fluorobenzonitrile] |  |  | 54200 | 0.44 | > 30000 | 0.18 ± 0.08 | 
4 | COc1ccc(-c2cnc(N3CCC(N)CC3)c(C#N)c2-c2ccc(C#N)c(F)c2)cc1O [Example 66, 2-(4-aminopiperidin-1-yl)-4-(4-cyano-3-fluorophenyl)-5-(3-hydroxy-4-methoxyphenyl)nicotinon itrile hydrochloride] |  |  | 3650 | 0.2 | 15500 | 0.2 ± 0.1 | Cl (Rat PK test (IV and PO)): 68.2 mL/min/kg; F (Rat PK test (IV and PO)): 17.7%; AUC(0-inf) (Rat PK test (IV and PO)): 227 ng·h/mL; Cmax (Rat PK test (IV and PO)): 42.5 ng/mL; half-life (Rat PK test (IV and PO)): 1.96 h; Vd (Rat PK test (IV and PO)): 11.3 L/kg
5 | N#Cc1ccc(-c2c(-c3ccc(C(F)(F)F)c(O)c3)cnc(N3CCC(N)CC3)c2C#N)cc1F [Example 70, 2-(4-aminopiperidin-1-yl)-4-(4-cyano-3-fluorophenyl)-5-(3-hydroxy-4-(trifluoromethyl)phenyl) nicotinonitrile hydrochloride] |  |  | 8710 | 0.885 |  | 0.5 ± 0.3 | 
6 | Cc1noc2cc(-c3cnc(N4CCC(N)CC4)c(C#N)c3-c3ccc(C#N)c(F)c3)c(F)cc12 [Example 71, 2-(4-aminopiperidin-1-yl)-4-(4-cyano-3-fluorophenyl)-5-(5-fluoro-3-methylbenzo[d]isoxazol-6-yl)nicotinonitrile] |  |  | 4300 | 0.338 |  | 0.3 ± 0.2 | 
7 | COc1ccc(-c2cnc(N3CC4CC3CC4N)c(C#N)c2-c2ccc(C#N)c(F)c2)cc1O (stereo not drawn) [Example 73, 2-(5-amino-2-azabicyclo [2.2.1]heptane-2-yl)-4-(4-cyano-3-fluorophenyl)-5-(3-hydroxy-4-methoxyphenyl) nicotinitrile] |  |  | 7590 | 1.61 |  | 1.9 ± 0.4 | 
8 | CNC1CCN(c2ncc(-c3ccc(OC)c(O)c3)c(-c3ccc(C#N)c(F)c3)c2C#N)CC1 [Example 79, 4-(4-cyano-3-fluorophenyl)-5-(3-hydroxy-4-methoxyphenyl)-2-(4-(methylamino)piperidin-1-yl) nicotinonitrile hydrochloride] |  |  | > 10000 | 0.272 | 4380 | 0.3 ± 0.1 | 
9 | COc1ccc(-c2cnc(N3CCC(C)(N)CC3)c(C#N)c2-c2ccc(C#N)c(F)c2)cc1O [Example 80, 2-(4-amino-4-methylpiperidin-1-yl)-4-(4-cyano-3-fluorophenyl)-5-(3-hydroxy-4-methoxyphenyl) )nicotinonitrile hydrochloride] |  |  | > 10000 | 1.22 | 9330 | 1 ± 0.4 | 
10 | COc1ccc(-c2c(OC)cc(N3CCC(N)CC3)nc2-c2ccc(C#N)c(F)c2)cc1F [Example 87, 4-(6-(4-aminopiperidin-1-yl)-3-(3-fluoro-4-methoxyphenyl)-4-methoxypyridin-2-yl)-2-fluoroben zonitrile] | 2.97 | 3.35 | 6740 | 3.29 |  | 2.82 ± 1.49 | efflux ratio at 120 min (Caco-2 permeability test): 1.13
11 | COc1ccc(-c2c(-c3ccc(C#N)c(F)c3)nc(N3CCC(N)CC3)n3ccnc23)cc1O [Example 124, 4-(5-(4-aminopiperidin-1-yl)-8-3-hydroxy-4-(methoxyphenyl)imidazolo[1,2-c]pyrimidin-7-yl)-2-fluorobenzonitrile] | 1.73 | 24.7 |  | 0.163 | > 30000 | 0.08 ± 0.03 | efflux ratio at 120 min (Caco-2 permeability test): 14.3
12 | Cc1noc2cc(-c3c(-c4ccc(C#N)c(F)c4)nc(N4CCC(N)CC4)n4ccnc34)c(F)cc12 [Example 125, 4-(5-(4-aminopiperidin-1-yl)-8-(5-fluoro-3-methylbenzo[d]isoxazol-6-yl)imidazolo[1,2-c]pyrimidin-7-yl)-2-fluorobenzonitrile] | 4.27 | 25 | 49900 | 0.386 | 9520 | 0.35 ± 0.09 | Cl (Rat PK test (IV and PO)): 60.6 mL/min/kg; F (Rat PK test (IV and PO)): 21.8%; AUC(0-inf) (Rat PK test (IV and PO)): 323 ng·h/mL; Cmax (Rat PK test (IV and PO)): 65 ng/mL; half-life (Rat PK test (IV and PO)): 2.58 h; Vd (Rat PK test (IV and PO)): 14.7 L/kg; efflux ratio at 120 min (Caco-2 permeability test): 5.84
13 | N#Cc1ccc(-c2nc(N3CCC(N)CC3)n3ccnc3c2-c2ccc(N3CCOCC3)cc2)cc1F [Example 128, 4-(5-(4-aminopiperidin-1-yl)-8-(4-morpholinophenyl)imidazolo [1,2-c]pyrimidin-7-yl)-2-fluorobenzonitrile] |  |  | > 50000 | 6.46 | 13700 | 4.19 ± 0.11 | 
14 | COc1ccc(-c2c(-c3ccc(C#N)c(F)c3)nc(N3CC4CC3CC4N)n3ccnc23)cc1O (stereo not drawn) [Example 164, 4-(5-(5-amino-2-azabicyclo[2.2. 1]heptan-2-yl)-8-(3-hydroxy-4-methoxyphenyl)imidazolo[1,2-c]pyrimidin-7-yl)-2-fluorobenzonitrile hydrochloride] |  |  | > 10000 | 0.22 |  | 0.4 ± 0.2 | 
15 | COc1ccc(-c2c(-c3ccc(C#N)c(F)c3)nc(N3CC4CC3CC4N)n3ccnc23)cc1F (stereo not drawn) [Example 169, 4-(5-(5-amino-2-azabicyclo[2.2.1]heptane-2-yl)-8-(3-fluoro-4-methoxyphenyl)imidazolo[1,2-c]pyrimidin-7-yl)-2-fluorobenzonitrile hydrochloride] |  |  | > 10000 | 4 |  | 4.3 ± 0.9 | 
16 | COc1ccc(-c2nc(CN[C@@H]3C[C@H]3c3ccc(F)cc3)cc(C(=O)N3CCN(S(C)(=O)=O)CC3)n2)cc1O [Example 224] |  |  | 5540 | 11.6 | 5600 | 25.7 | 
17 | CS(=O)(=O)N1CCN(C(=O)c2cc(CN[C@@H]3C[C@H]3c3ccc(F)cc3)nc(-c3ccc(N4CCOCC4)cc3)n2)CC1 [Example 227] |  |  | 14100 | 3.91 | 6290 | 42.6 | 
18 | Cc1ccc(-c2nc(CN[C@@H]3C[C@H]3c3ccc(F)cc3)cc(C(=O)NC3CCOCC3)n2)cc1O [Example 236] | 1.44 | 3.99 |  | 2.82 | 5400 | 21.7 | efflux ratio at 120 min (Caco-2 permeability test): 2.76
19 | CC1CN(C(=O)c2cc(CN[C@@H]3C[C@H]3c3ccc(F)cc3)nc(-c3ccc(C#N)cc3)n2)CC(C)N1 (stereo partly drawn) [Example 239, 4-(4-(3,5-dimethyl-piperazine-1-carbonyl)-6-((((1R,2S)-2-(4-fluoro-phenyl)cyclopropyl)amino)methyl)pyrimidin-2-yl) benzonitrile] |  |  | > 10000 | 0.986 |  | 4.8 ± 1.8 | 
20 | O=C(NC1CCOCC1)c1cc(CN[C@@H]2C[C@H]2c2ccc(F)cc2)nc(-c2ccc(N3CCOCC3)cc2)n1 [Example 246, 6-(((1R,2S)-2-(4-fluorophenyl)cyclopropyl)amino)methyl)-2-(4-morpho-linophenyl)-N-(tetrahydro-2H-pyran-4-yl)pyrimidine-4-carboxamide hydrochloride] | 3.59 | 3.36 |  | 1.78 | 8550 | 18.1 | Cl (Rat PK test (IV and PO)): 39.6 mL/min/kg; F (Rat PK test (IV and PO)): 9.54%; AUC(0-inf) (Rat PK test (IV and PO)): 265 ng·h/mL; Cmax (Rat PK test (IV and PO)): 56.2 ng/mL; half-life (Rat PK test (IV and PO)): 4.96 h; Vd (Rat PK test (IV and PO)): 4.22 L/kg; efflux ratio at 120 min (Caco-2 permeability test): 0.96
21 | COc1ccc(-c2c(C#N)cc(N3CCC(N)CC3)nc2-c2ccc(C#N)c(F)c2)cc1O [Example 273, 6-(4-aminopiperidin-1-yl)-2-(4-cyano-3-fluorophenyl)-3-(3-hydroxy-4-methoxyphenyl)pyridine-4-carbonitrile] |  |  | > 10000 | 1.19 |  | 0.2 ± 0.05 | 
22 | COc1ccc(-c2c(-c3ccc(C#N)c(F)c3)nc(N3CCC(N)CC3)c3c2OCC(=O)N3)cc1O [Example 280, 4-(5-(4-aminopiperidin-1-yl)-8-(3-hydroxy-4-methoxyphenyl)-3-oxo-3,4-dihydro-2H-pyridine[4,3-b][1,4]oxazin-7-yl)-2-fluorobenzonitrile hydrochloride] |  |  | > 10000 |  |  |  | IC50 (NCI-H1417 cells; NCI-H1417, 168 h, read-out: NCI-H1417 proliferation inhibition IC50(nM)): 2.7 ± 1 nM
